Measured values from patent US10335388B2, “Combination therapy of a HIF-2-alpha inhibitor and an immunotherapeutic agent and uses thereof” (PELOTON THERAPEUTICS, INC., priority 2015, dated 2019).
Like-named read-outs stand apart in the source and are kept apart here.

Columns and labels:
[1] = target: T1, HIF-2α HIS TAG-PASB Domain (Homo sapiens, UniProt Q99814); assay: HIF-2α Scintillation Proximity Assay (SPA); format: binding; settings: displacement of tritiated probe Compound 183
T1 construct: 100 nM HIF-2α HIS TAG-PASB Domain
T1 sequence (Q99814 240-350 limits assumed): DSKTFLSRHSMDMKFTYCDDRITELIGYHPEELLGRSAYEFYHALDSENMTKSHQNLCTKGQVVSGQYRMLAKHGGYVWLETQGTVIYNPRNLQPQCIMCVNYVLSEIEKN
Description: The total assay volume was about 100 μL in the following configuration: 2 μL compound in 100% DMSO, 88 μL buffer with protein and probe and 10 μL of SPA beads. […] The percent inhibition was determined and IC50 values were calculated using the Dotmatics system based on the following equation: % inhibition=[(high control−sample)/(high control−low control)]×100.

786-O-Hif-Luc cells = assay: Luciferase assay (HIF responsive element reporter); settings: 24 h
Description: A pool of infected cells were then selected against 2 μg/mL of puromycin (P8833, Sigma) for 10 days followed by limited dilution to select single clones.
Each concentration was tested in triplicate. After about 24 hours, luciferase activity was determined using ONE-Glo Luciferase Assay Reagent (E6110, Promega) following the manufacturer's recommended procedure. EC50 were calculated using Dotmatics software.

786-O cells = assay: VEGF ELISA assay; format: cell-based; settings: Homo sapiens, 786-0
Description: Each concentration was plated in duplicate. About 20 hours later, medium was removed by suction and each well was supplied with 180 μL of growth medium. About 20 µl freshly-made 10× compound stocks were added to each well. […] The EC50 was calculated by GraphPad Prism using the dose-response-inhibition (four parameter) equation. The cell-seeded plate was then subjected to CellTiter-Glo luminescence cell viability assay (Promega) by adding 50 μL of Celltiter Glo reagent into each well and shaking the plate for 8 minutes at 550 rpm (Thermomixer R, Eppendorf) then the luminescence signal immediately read in a plate reader (3 second delay, 0.5 second/well integration time, Synergy 2 multi Detection Microplate reader).

[2] = tested on: CT26.WT mouse carcinoma cells; assay: Mouse colon CT26 syngeneic tumor model; settings: BALB/c mice, after 20 days of treatment; Compound 163 30 mg/kg BID, α-CTLA-4 or IgG control 10 mg/kg BIW
[3] = tested on: B16-F10 mouse melanoma cells; assay: Mouse melanoma B16-F10 syngeneic tumor model; settings: C57BL/6 mice, after 14 days of treatment; Compound 163 30 mg/kg BID, α-PD-1 or IgG control 10 mg/kg BIW
[4] = read-out: Mean Luciferase EC50 (nM)
[5] = read-out: Mean Luciferase EC50 (nM), 786-O-Hif-Luc cells, about 24 hours

Row | Compound | IC50 [1] | EC50 (786-O-Hif-Luc cells; [4]) | other results
1 | O=S(=O)(c1ccc(-c2cccc(O)c2)c2c1[C@H](O)C(F)(F)C2)C(F)(F)F [Compound 564] | > 1000 nM | – | –
2 | O=S(=O)(CF)c1ccc(O[C@H]2C[C@H](F)C2)c2c1[C@H](O)C(F)(F)[C@@H]2F [Compound 742] | < 50 nM | – | –
3 | CS(=O)(=O)c1ccc(Oc2cc(F)cc(C#N)c2)c2c1[C@@H](O)C(F)(F)C2 [Compound 226] | – | > 1000 nM | –
4 | CS(=O)(=O)c1ccc(Oc2cc(F)cc(C#N)c2)c2c1C(O)C(F)(F)C2 (stereo not shown) [Compound 223] | – | 50 to 249 nM | –
5 | O=S(=O)(c1ccc(OC2CCNCC2)c2c1C(O)C(F)(F)C2)C(F)(F)F (stereo not shown) [Compound 606] | > 1000 nM | – | –
6 | O=S(=O)(c1ccc(Oc2cc(F)cc(Cl)c2)c(Cl)c1CO)C(F)F [Compound 41] | – | 250 to 1000 nM | EC50 (786-O cells): 250 to 1000 nM
7 | CCS(=O)(=O)c1ccc(Oc2cc(F)cc(C#N)c2)c2c1[C@H](O)C(F)(F)C2 [Compound 206] | – | 50 to 249 nM | –
8 | CS(=O)(=O)c1ccc(Oc2cc(F)cc(F)c2)c2c1C(O)C(F)(F)C2 (stereo not shown) [Compound 159] | < 50 nM | – | EC50 (786-O cells): < 50 nM; EC50 (786-O-Hif-Luc cells; [5]): < 50 nM
9 | C[C@H]1C[C@@H](O)c2c(S(=O)(=O)C(F)F)ccc(Oc3cc(F)cc(Cl)c3)c21 [Compound 7a] | – | 250 to 1000 nM | –
10 | CS(=O)(=O)c1ccc(OC2CCOCC2)c2c1[C@H](O)C(F)(F)C2 [Compound 775] | 250 to 1000 nM | – | EC50 (786-O-Hif-Luc cells; [5]): 250 to 1000 nM
11 | CS(=O)(=O)c1ccc(Oc2cc(F)cc(C#N)c2)c2c1[C@H](O)[C@@H](F)C2 [Compound 271] | – | 250 to 1000 nM | –
12 | CS(=O)(=O)c1ccc(Oc2cc(F)cc(C#N)c2)c2c1[C@H](O)C(F)(F)C2 [Compound 163, (S)-3-((2,2-Difluoro-1-hydroxy-7-(methylsulfonyl)-2,3-dihydro-1H-inden-4-yl)oxy)-5-fluorobenzonitrile] | – | < 50 nM | Tumor size (mm^3) Mean ± SEM [2]: 1612 ± 305 mm^3; Tumor size (mm^3) Mean ± SEM [3]: 2133.89 ± 306.44 mm^3
13 | CS(=O)(=O)c1ccc(Oc2cc(Cl)cc(C#N)c2)c2c1[C@H](O)C(F)(F)C2 [Compound 234] | – | < 50 nM | EC50 (786-O cells): 50 to 249 nM
14 | N#Cc1cc(Cl)cc(Oc2ccc(S(=O)(=O)CF)c3c2CC(F)(F)[C@H]3O)c1 [Compound 167] | – | < 50 nM | –
15 | CS(=O)(=O)c1ccc(Oc2cc(F)cc(C#N)c2)c2c1[C@H](O)[C@H](F)C2 [Compound 231] | – | < 50 nM | –
16 | O=S(=O)(c1ccc(O[C@@H]2CCCc3cn[nH]c32)c2c1[C@H](O)C(F)(F)C2)C(F)(F)F [Compound 729] | > 1000 nM | – | –
17 | CNS(=O)(=O)c1ccc(Oc2cc(F)cc(C#N)c2)c2c1[C@H](O)C(F)(F)C2 [Compound 254] | – | 50 to 249 nM | –
18 | N#Cc1cc(F)cc(Oc2ccc(S(=O)(=O)C(F)F)c3c2CCC3O)c1 (stereo not shown) [Compound 78] | – | – | EC50 (786-O cells): 250 to 1000 nM
19 | N#Cc1cc(F)cc(Oc2ccc(S(N)(=O)=O)c3c2[C@H](F)C(F)(F)[C@H]3O)c1 [Compound 339] | – | 250 to 1000 nM | –

Row | Compound | IC50 [1] | EC50 (786-O-Hif-Luc cells; [4]) | other results
20 | O[C@H]1c2c(C(F)(F)F)ccc(OC(F)F)c2CC1F (stereo partly shown) [Compound 671] | > 1000 nM | – | –
21 | O=S(=O)(c1ccc(OC[C@@H]2CC2(F)F)c2c1[C@H](O)C(F)(F)C2)C(F)(F)F [Compound 728] | < 50 nM | – | EC50 (786-O-Hif-Luc cells; [5]): < 50 nM
22 | O=S(=O)(c1ccc(OCC(F)F)c2c1[C@H](O)C(F)(F)C2)C(F)F [Compound 677] | < 50 nM | – | EC50 (786-O-Hif-Luc cells; [5]): 50 to 249 nM
23 | CCCOc1ccc(C2CC2)c2c1CC(F)(F)C2O (stereo not shown) [Compound 685] | > 1000 nM | – | –
24 | O[C@H]1c2c(C(F)(F)F)ccc(OCC(F)F)c2C[C@H]1F [Compound 696] | 50 to 249 nM | – | EC50 (786-O-Hif-Luc cells; [5]): 50 to 249 nM
25 | CS(=N)(=O)c1ccc(Oc2cc(F)cc(F)c2)c2c1[C@H](O)C(F)(F)C2 (stereo partly shown) [Compound 192] | 50 to 249 nM | – | EC50 (786-O-Hif-Luc cells; [5]): 250 to 1000 nM
26 | N#Cc1cc(F)cc(Oc2ccc3c(c2C(F)F)[C@@H](N)C(F)(F)S3(=O)=O)c1 [Compound 387] | 50 to 249 nM | – | –
27 | O=S(=O)(c1ccc(Oc2cc(F)cc(Cl)c2)c2c1[C@H](O)CC2)C(F)F [Compound 1] | – | – | EC50 (786-O cells): 250 to 1000 nM
28 | N#Cc1cncc(Oc2ccc(S(=O)(=O)C(F)(F)F)c3c2CC(F)(F)[C@H]3O)c1 [Compound 235] | – | < 50 nM | –
29 | O=S(=O)(c1ccc(Oc2cc(F)cc(Cl)c2)c(Br)c1C=NO)C(F)(F)F [Compound 107] | 50 to 249 nM | – | EC50 (786-O-Hif-Luc cells; [5]): 250 to 1000 nM
30 | CS(=O)(=O)c1ccc(Oc2cc(F)cc(C#N)c2)c2c1C(O)C(F)C2 (stereo not shown) [Compound 232] | – | < 50 nM | –
31 | N#Cc1cc(F)cc(Oc2ccc(S(=O)(=O)C(F)(F)F)c3c2CC[C@H]3O)c1 [Compound 57] | – | 50 to 249 nM | –
32 | [2H][C@]1(O)c2c(S(C)(=O)=O)ccc(Oc3cc(F)cc(C#N)c3)c2CC1(F)F [Compound 247] | – | < 50 nM | –
33 | N#Cc1c(Oc2cc(F)cc(Cl)c2)ccc(S(=O)(=O)C(F)(F)F)c1F [Compound 153] | 50 to 249 nM | – | –
34 | [2H]C([2H])([2H])S(=O)(=O)c1ccc(Oc2cc(F)cc(C#N)c2)c2c1[C@]([2H])(O)C(F)(F)C2 [Compound 229] | – | < 50 nM | –
35 | O=S(=O)(c1ccc(OC2CCCNC2)c2c1C(O)C(F)(F)C2)C(F)(F)F (stereo not shown) [Compound 797] | > 1000 nM | – | –
36 | CC(C)(C)OC(=O)N[C@H]1C[C@@H](Oc2ccc(S(=O)(=O)C(F)(F)F)c3c2CC(F)(F)[C@H]3O)C1 [Compound 722] | > 1000 nM | – | EC50 (786-O-Hif-Luc cells; [5]): > 1000 nM
37 | O=S(=O)(c1ccc(Oc2cc(F)cc(Cl)c2)c2c1C(O)CC2)C(F)F (stereo not shown) [Compound 17] | – | – | EC50 (786-O cells): 50 to 249 nM
38 | N#Cc1ccc(Oc2cc(F)cc(F)c2)c2c1[C@H](O)C(F)(F)C2 [Compound 67] | – | – | EC50 (786-O cells): 50 to 249 nM

Row | Compound | IC50 [1] | EC50 (786-O-Hif-Luc cells; [4]) | other results
39 | N#C[C@H]1C[C@H](Oc2ccc(S(=O)(=O)C(F)(F)F)c3c2CC(F)(F)C3O)C1 (stereo partly shown) [Compound 786] | < 50 nM | – | EC50 (786-O-Hif-Luc cells; [5]): < 50 nM
40 | N#Cc1cc(F)cc(Oc2ccc(S(=O)(=O)C(F)(F)F)c3c2CC(F)(F)[C@H]3N)c1 [Compound 290] | – | 50 to 249 nM | –
41 | CS(=O)(=O)c1ccc(OC2CCOCC2)c2c1[C@H](O)C(F)(F)[C@@H]2F [Compound 796] | < 50 nM | – | EC50 (786-O-Hif-Luc cells; [5]): 250 to 1000 nM
42 | NS(=O)(=O)c1ccc(Oc2cc(F)cc(F)c2)c2c1[C@H](O)C(F)(F)C2 [Compound 256] | – | < 50 nM | –
43 | CC(=NO)c1c(S(=O)(=O)C(F)(F)F)ccc(Oc2cc(F)cc(Cl)c2)c1Br [Compound 106] | 250 to 1000 nM | – | –
44 | N#CC1CCc2c(OCC(F)F)ccc(C(F)(F)F)c21 (stereo not shown) [Compound 691] | > 1000 nM | – | –
45 | O=S(=O)(CF)c1ccc(OC2CC(F)C2)c2c1[C@H](O)C(F)(F)[C@@H]2F (stereo partly shown) [Compound 742] | – | – | EC50 (786-O cells): < 50 nM; EC50 (786-O-Hif-Luc cells; [5]): < 50 nM
46 | N#Cc1cc(F)cc(Oc2ccc(S(=O)(=O)C(F)F)c3c2CC[C@H]3O)c1 [Compound 155] | – | 50 to 249 nM | EC50 (786-O cells): 50 to 249 nM
47 | O=S(=O)(c1ccc(OC2CC(O)C2)c2c1[C@H](O)C(F)(F)C2)C(F)(F)F (stereo partly shown) [Compound 644] | 250 to 1000 nM | – | EC50 (786-O-Hif-Luc cells; [5]): 250 to 1000 nM
48 | O=S(=O)(c1ccc(Oc2cc(F)cc(Cl)c2)c(C(F)F)c1)C(F)(F)F [Compound 124] | – | 250 to 1000 nM | EC50 (786-O cells): 250 to 1000 nM
49 | CCCOc1ccc(S(=O)(=O)C(F)F)c2c1CC(F)(F)[C@H]2O [Compound 676] | 50 to 249 nM | – | EC50 (786-O-Hif-Luc cells; [5]): 50 to 249 nM
50 | CS(=O)(=O)c1ccc(OC[C@H]2CC2(F)F)c2c1[C@H](O)C(F)(F)[C@@H]2F [Compound 769] | 50 to 249 nM | – | EC50 (786-O-Hif-Luc cells; [5]): 250 to 1000 nM
51 | CS(=O)(=O)c1ccc(Oc2cc(F)cc(C#N)c2)c2c1[C@H](O)[C@H](F)[C@@H]2F [Compound 289, 3-[(1S,2S,3R)-2,3-difluoro-1-hydroxy-7-methylsulfonyl-indan-4-yl]oxy-5-fluoro-benzonitrile] | – | < 50 nM | –
52 | CNS(=O)(=O)c1ccc(Oc2cc(F)cc(F)c2)c2c1[C@H](O)C(F)(F)C2 [Compound 251] | – | 50 to 249 nM | –
53 | N#Cc1cc(F)cc(Oc2ccc(S(=O)(=O)C(F)F)c3c2CCC3F)c1 (stereo not shown) [Compound 202] | 250 to 1000 nM | – | EC50 (786-O-Hif-Luc cells; [5]): > 1000 nM
54 | N#Cc1cc(F)cc(Oc2ccc(S(N)(=O)=O)c3c2CC(F)(F)[C@H]3O)c1 [Compound 252] | – | 50 to 249 nM | –
55 | N#Cc1cc(F)cc(Oc2ccc(S(N)(=O)=O)c3c2[C@@H](F)C(F)(F)[C@H]3O)c1 [Compound 338] | – | < 50 nM | –
56 | CS(=O)(=O)c1ccc(Oc2cc(F)cc(C#N)c2)c2c1[C@H](N)C(F)(F)C2 [Compound 165] | – | 50 to 249 nM | –
57 | N#Cc1cccc(Oc2ccc(S(=O)(=O)C(F)F)c3c2CC[C@H]3O)c1 [Compound 156] | – | 250 to 1000 nM | –
